Conditions: isochoric method

CC(C)O [propan-2-ol]
mass density [kg/m3]
Conditions | Gas | Liquid
380.35 K | – | 697.69
451.83 K | – | 581.06
507.95 K | – | 343.1
508.16 K | – | 329.2
508.28 K | – | 324.5
508.51 K | 234.3 | –
508.68 K | – | 293.3
508.69 K | – | 288.99
508.7 K | 255.8 | –
508.71 K | – | 281.9
508.72 K | 266.3 | 274
